Reference: ChEMBL document CHEMBL4007391, “Tackling Fungal Resistance by Biofilm Inhibitors” (J Med Chem, 2017)
≈ marks a conversion by molar mass, not a printed value.

Experiments:
[1] = Toxicity in mouse; assay type: organism-based; settings: in vivo
[2] = tested on: Candida albicans; assay: Antibiofilm activity against Candida albicans CAF2-1 after 48 hrs by Alamar blue assay; assay type: functional; settings: CAF2-1, 48 h
[3] = tested on: Candida albicans; assay: Antibiofilm activity against fluconazole-resistant Candida albicans 29E clinical isolates after 48 hrs by Alamar blue assay; assay type: functional
[4] = tested on: Candida albicans; assay: Antibiofilm activity against Candida albicans SC5314 after 48 hrs by Alamar blue assay; assay type: functional; settings: SC5314, 48 h
[5] = tested on: Candida albicans; assay: Inhibition of filament formation of tet-NRG1 expressing Candida albicans after 2 to 24 hrs; assay type: functional
[6] = Cytotoxicity against human HepG2 assessed as reduction in cell viability after 24 hrs by CellTiter-Glo luminescent assay; assay type: cell-based; settings: HepG2 cells
[7] = tested on: Candida albicans; assay: Antibiofilm activity against Candida albicans DAY185 after 24 hrs by XTT assay; assay type: functional
[8] = tested on: Candida albicans; assay: Antifungal activity against Candida albicans DAY185 by CLSI method; assay type: functional
[9] = tested on: Candida; assay: Antifungal activity against drug-resistant Candida spp. clinical isolates after 48 hrs by broth microdilution assay; assay type: functional
[10] = tested on: Candida; assay: Antifungal activity against Candida after 48 hrs by broth microdilution assay; assay type: functional
[11] = tested on: Candida albicans; assay: Disruption of biofilm of Candida albicans DAY185 assessed as death of biofilm hyphae after 24 hrs by XTT assay; assay type: functional
[12] = tested on: Candida albicans; assay: Antibiofilm activity against Candida albicans SC5314 after 24 hrs in presence of miconazole by Cell-Titer Blue assay; assay type: functional
[13] = tested on: Candida albicans; assay: Antibiofilm activity against Candida albicans SC5314 after 24 hrs by Cell-Titer Blue assay; assay type: functional
[14] = tested on: Candida albicans; assay: Inhibition of biofilm formation of Candida albicans ATCC 90028 after 48 hrs in presence of voriconazole by XTT assay; assay type: functional
[15] = tested on: Candida albicans; assay: Disruption of biofilm of Candida albicans ATCC 90028 after 48 hrs in presence of voriconazole by XTT assay; assay type: functional
[16] = tested on: Candida albicans; assay: Disruption of biofilm of Candida albicans ATCC 90028 after 48 hrs in presence of fluconazole by XTT assay; assay type: functional
[17] = tested on: Candida albicans; assay: Inhibition of biofilm formation of Candida albicans ATCC 90028 after 48 hrs in presence of fluconazole by XTT assay; assay type: functional
[18] = tested on: Candida albicans; assay: Antibiofilm activity against Candida albicans SC5314 clinical isolates after 24 hrs by XTT assay; assay type: functional; settings: Candida albicans, SC5314, 24 h
[19] = tested on: Candida albicans; assay: Antifungal activity against fluconazole-resistant Candida albicans by broth microdilution assay; assay type: functional
[20] = tested on: Candida albicans; assay: Antifungal activity against fluconazole-susceptible Candida albicans by broth microdilution assay; assay type: functional
[21] = tested on: Candida albicans; assay: Antifungal activity against Candida albicans KCTC 1940 clinical isolates after 7 days by two fold serial dilution method; assay type: functional; settings: KCTC 1940, 168 h
[22] = tested on: Cryptococcus neoformans; assay: Antifungal activity against Cryptococcus neoformans KCTC 7224 clinical isolates after 7 days by two fold serial dilution method; assay type: functional; settings: KCTC 7224, 168 h
[23] = tested on: Trichophyton mentagrophytes; assay: Antifungal activity against Trichophyton mentagrophytes KCTC 6077 clinical isolates after 7 days by two fold serial dilution method; assay type: functional; settings: KCTC 6077, 168 h
[24] = tested on: Candida albicans; assay: Disruption of biofilm of fluconazole-resistant Candida albicans at 8 to 32 ug/ml after 24 hrs by XTT assay; assay type: functional
[25] = tested on: Candida albicans; assay: Antifungal activity against fluconazole-resistant Candida albicans after 48 hrs by broth microdilution assay; assay type: functional
[26] = tested on: Candida albicans; assay: Inhibition of biofilm formation of fluconazole-resistant Candida albicans at 2 to 4 ug/ml after 24 hrs by XTT assay; assay type: functional
[27] = tested on: Candida albicans; assay: Antifungal activity against Candida albicans by broth dilution assay; assay type: functional

NC1C2CC3CC(C2)CC1C3 (configuration not stated)
LD50 [1]: 250 mg/kg

CCN1/C(=C\c2ccc3ccccc3[n+]2CC)Sc2cc(C)ccc21
IC50 [2]: 2.8 to 82.1 µM
IC50 [3]: 2.8 to 82.1 µM
IC50 [4]: 2.8 to 82.1 µM

CCN1/C(=C/c2ccc3cc(C)ccc3[n+]2CC)Sc2cc(C)c(C)cc21
IC50 [2]: 231 to 268 µM
IC50 [3]: 231 to 268 µM
IC50 [4]: 231 to 268 µM

Cc1ccccc1OCc1n(CC(=O)OC2CC(C)CCC2C(C)C)c2ccccc2[n+]1C (configuration not stated)
IC50 [2]: 9.8 to 24.3 µM
IC50 [3]: 9.8 to 24.3 µM
IC50 [4]: 9.8 to 24.3 µM

CCC(CO)N1C(C)=CC(=Cc2sc3ccccc3[n+]2Cc2ccccc2)C=C1C (configuration not stated)
IC50 [2]: 1.7 to 119 µM
IC50 [3]: 1.7 to 119 µM
IC50 [4]: 1.7 to 119 µM

CCN(CC)CCN1c2ccccc2Sc2ccc3ccccc3c21
IC50 [5]: 3.8 µM
CC50 at 24 h [6]: 50.8 µM

CCCCCCCCCC(=O)[C@H]1C(=O)N[C@@H](CC(C)C)C(=O)N[C@H](C)C(=O)N2CCC[C@H]2C(=O)N[C@@H](C(C)C)C(=O)N[C@H]2CS[C@H]1CNC2=O
IC50 [7]: > 200 µM
MIC [8]: > 200 µM

CCCCCCCCCC(=O)[C@@H]1C(=O)N[C@@H](CC(C)C)C(=O)N[C@H](C)C(=O)N2CCC[C@H]2C(=O)N[C@@H](C(C)C)C(=O)N[C@H]2CS[C@H]1CNC2=O
IC50 [7]: 3.4 µM
MIC [8]: > 200 µM

CCCCCCCCCC(=O)[C@@H]1C(=O)N[C@@H](CC(C)C)C(=O)N[C@H](C)C(=O)N2CCC[C@H]2C(=O)N[C@@H]([C@@H](C)CC)C(=O)N[C@H]2CS[C@H]1CNC2=O
IC50 [7]: 9.1 µM
MIC [8]: > 200 µM

CCCCCCCCCC(=O)C1C(=O)N[C@@H](CC(C)C)C(=O)N[C@H](C)C(=O)N2CCC[C@H]2C(=O)N[C@@H](C(C)C)C(=O)N[C@@H](CC)C(=O)NCC1O (some centres not stated)
IC50 [7]: 5.3 µM
MIC [8]: > 200 µM

CN(C)c1ccc(/C=C/c2cc(C(C)(C)C)[o+]c(C(C)(C)C)c2)cc1.[O-][Cl+3]([O-])([O-])[O-]
MIC [9]: 0.5 to 1 mg/L
MIC [10]: 0.2 to 6.25 mg/L

C=C(C)[C@H](CC=C(C)C)C[C@]12C[C@H](CC=C(C)C)C(C)(C)[C@](CC=C(C)C)(C(=O)C(C(=O)c3ccc(O)c(O)c3)=C1O)C2=O
EC50 [11]: 30 to 50 µM

CO[C@H]1O[C@@H]2O[C@@]3(C)CC[C@H]4[C@H](C)CC[C@@H]([C@H]1C)[C@@]24OO3
fractional inhibitory concentration index (FICI) [12]: 0.112

C[C@@H]1CC[C@H]2[C@@H](C)C(=O)O[C@@H]3O[C@@]4(C)CC[C@@H]1[C@]32OO4 [ARTEMISININ]
fractional inhibitory concentration index (FICI) [12]: 0.186

C[C@H]1[C@@H](O)O[C@@H]2O[C@@]3(C)CC[C@H]4[C@H](C)CC[C@@H]1[C@@]24OO3 [ARTENIMOL]
fractional inhibitory concentration index (FICI) [12]: 0.145

C[C@H]1[C@H](OC(=O)CCC(=O)O)O[C@@H]2O[C@@]3(C)CC[C@H]4[C@H](C)CC[C@@H]1[C@@]24OO3 [ARTESUNATE]
fractional inhibitory concentration index (FICI) [12]: <0.069

Oc1c(Br)cc(Br)c2cccnc12 [BROXYQUINOLINE]
MBEC2 [13]: 1.2 µM

CCN(CC)CCCC(C)Nc1ccnc2cc(Cl)ccc12 (configuration not stated) [CHLOROQUINE]
fractional inhibitory concentration index (FICI) [14]: 0.156 - 0.25
fractional inhibitory concentration index (FICI) [15]: 0.156 - 0.25
fractional inhibitory concentration index (FICI) [16]: 0.156 - 0.25
fractional inhibitory concentration index (FICI) [17]: 0.156 - 0.25

Oc1c(Cl)cc(Cl)c2cccnc12 [CHLOROXINE]
IC50 [2]: 1.2 to 13.2 µM
IC50 [18]: 2.7 µM
IC50 [3]: 1.2 to 13.2 µM
IC50 [4]: 1.2 to 13.2 µM

COc1ccc2cc1Oc1ccc(cc1)C[C@H]1c3cc(c(OC)cc3CCN1C)Oc1c(OC)c(OC)cc3c1[C@H](C2)N(C)CC3 [FANCHININ]
MIC80 [19]: 64 mg/L (≈ 103 µM)
MIC80 [20]: 64 mg/L (≈ 103 µM)

CN(C)c1ccc(C(=C2C=CC(=[N+](C)C)C=C2)c2ccc(N(C)C)cc2)cc1.[Cl-] [GENTIAN VIOLET]
MBEC2 [13]: 1.5 µM

Oc1c(Cl)cc(Cl)c(Cl)c1Cc1c(O)c(Cl)cc(Cl)c1Cl [HEXACHLOROPHENE]
IC50 [18]: 5.1 µM
MBEC2 [13]: 9.3 µM

C=CCc1ccc(O)c(-c2ccc(O)c(CC=C)c2)c1 [HONOKIOL]
MIC [21]: 16 to 32 mg/L (≈ 60.1 to 120 µM)
MIC [22]: 25 mg/L (≈ 93.9 µM)
MIC [23]: 25 mg/L (≈ 93.9 µM)

C=CCc1ccc(O)c(-c2cc(CC=C)ccc2O)c1 [MAGNOLOL]
MIC [21]: 16 to 32 mg/L (≈ 60.1 to 120 µM)
MIC [22]: 25 mg/L (≈ 93.9 µM)
MIC [23]: 25 mg/L (≈ 93.9 µM)

CCCCCCCCCCCCCCCCOP(=O)([O-])OCC[N+](C)(C)C [MILTEFOSINE]
inhibition (INH) [24]: >90%
MIC [25]: 0.5 to 2 mg/L (≈ 1.23 to 4.91 µM)
inhibition (INH) [26]: 90%

O=[N+]([O-])c1ccc(O)c2ncccc12 [NITROXOLINE]
IC50 [2]: 1 to 5.8 µM
IC50 [3]: 1 to 5.8 µM
IC50 [4]: 1 to 5.8 µM
MBEC2 [13]: 3.1 µM

COc1cc(/C=C/c2ccc(O)cc2)cc(OC)c1 [PTEROSTILBENE]
MIC80 [27]: 32 mg/L (≈ 125 µM)

Cc1cc(/C=C/c2ccc3cc(N(C)C)ccc3[n+]2C)c(C)n1-c1ccccc1.Cc1cc(/C=C/c2ccc3cc(N(C)C)ccc3[n+]2C)c(C)n1-c1ccccc1.O=C([O-])c1cc2ccccc2c(Cc2c(O)c(C(=O)[O-])cc3ccccc23)c1O [PYRVINIUM PAMOATE]
IC50 [18]: 6.7 µM
MBEC2 [13]: 3.9 µM

CO[C@H]1C[C@@H]2CC[C@@H](C)[C@@](O)(O2)C(=O)C(=O)N2CCCC[C@H]2C(=O)O[C@H]([C@H](C)C[C@@H]2CC[C@@H](O)[C@H](OC)C2)CC(=O)[C@H](C)/C=C(\C)[C@@H](O)[C@@H](OC)C(=O)[C@H](C)C[C@H](C)/C=C/C=C/C=C/1C [SIROLIMUS]
IC50 [5]: 0.514 µM
CC50 at 24 h [6]: 67.2 µM
